Measured values published in ChEMBL document CHEMBL6092168, “Identification of novel indolinone derivatives as CTSC inhibitors to treat inflammatory bowel disease by modulating inflammatory factors” (Eur J Med Chem, 2024).
Activity calls are given as the source filed them. No cut-off for these calls is given here.

Legend:
RAW264.7 [1] = assay: Anti-inflammatory activity in mouse RAW264.7 cells assessed as inhibition of LPS-induced TNF-alpha production at 5 uM preincubated for 1 hr followed by LPS addition and measured after 24 hrs by ELISA relative to control; type: functional; parameters: scale not given: the % may be the effect or the level left; settings: time 25 hrs
Mus musculus [2] = assay: Anti-inflammatory activity in DSS-induced ulcerative colitis male C57BL/6 mouse model assessed as reduction in proteinase 3 level in serum at 60 mg/kg administered via gavage for 10 days relative to control; type: functional; parameters: scale not given: the % may be the effect or the level left
Mus musculus [3] = assay: Anti-inflammatory activity in DSS-induced ulcerative colitis male C57BL/6 mouse model assessed as reduction in neutrophil elastase level in serum at 60 mg/kg administered via gavage for 10 days relative to control; type: functional; parameters: scale not given: the % may be the effect or the level left; settings: time 10 day
Mus musculus [4] = assay: Anti-inflammatory activity in DSS-induced ulcerative colitis male C57BL/6 mouse model assessed as reduction in Cathepsin C level in colon at 60 mg/kg administered via gavage for 10 days; type: functional; parameters: scale not given: the % may be the effect or the level left; settings: time 10 day
Mus musculus [5] = assay: Anti-inflammatory activity in DSS-induced ulcerative colitis male C57BL/6 mouse model assessed as increase in IL-10 expression in serum administered via gavage for 10 days by ELISA; type: functional, organism-based; settings: dose 15-60 mg/kg, time 10.0 day
Mus musculus [6] = assay: Anti-inflammatory activity in DSS-induced ulcerative colitis male C57BL/6 mouse model assessed as increase in colon length at 60 mg/kg administered via gavage for 10 days; type: functional, organism-based; settings: time 10.0 day
Mus musculus [7] = assay: Anti-inflammatory activity in DSS-induced ulcerative colitis male C57BL/6 mouse model assessed as reduction in neutrophil elastase level in serum at 15 to 30 mg/kg administered via gavage for 10 days; type: functional, organism-based; settings: dose 15-30 mg/kg, time 10.0 day
Mus musculus [8] = assay: Anti-inflammatory activity in DSS-induced ulcerative colitis male C57BL/6 mouse model assessed as increase in body weight at 60 mg/kg administered via gavage for 10 days; type: functional, organism-based; settings: time 10.0 day
[9] = target: T1, Cathepsin G (Mus musculus) (UniProt P28293); assay: In vivo inhibition of Cathepsin G in C57BL/6 mouse assessed as reduction in cathepsin G activity in blood at 30 mg/kg, po administered once daily for 6 days by fluorescence based microplate reader relative to control; type: functional, organism-based; settings: time 6.0 day
T1 sequence (whole entry): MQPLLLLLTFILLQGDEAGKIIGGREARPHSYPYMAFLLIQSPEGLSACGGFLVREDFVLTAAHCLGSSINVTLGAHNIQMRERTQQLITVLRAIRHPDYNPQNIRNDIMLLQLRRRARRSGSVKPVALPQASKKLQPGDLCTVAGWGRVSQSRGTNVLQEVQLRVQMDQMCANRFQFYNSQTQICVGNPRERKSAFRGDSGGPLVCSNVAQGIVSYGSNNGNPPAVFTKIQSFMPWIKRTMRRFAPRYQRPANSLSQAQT

Mus musculus [10] = assay: Anti-inflammatory activity in DSS-induced ulcerative colitis male C57BL/6 mouse model assessed as reduction in inflammatory cell infiltration in colon at 60 mg/kg administered via gavage for 10 days by H and E staining based analysis; type: functional, organism-based; settings: time 10.0 day
[11] = target: T2, Myeloblastin (Homo sapiens) (UniProt P24158); assay: Inhibition of proteinase 3 in human U-937 cells using aminobenzoyl-Val-Ala-Asp-Cys-Ala-Asp-Gln-ethylenediamine 2,4-dinitrophenyl as substrate at 10 uM incubated for 5 days by fluorescence based microplate reader analysis relative to control; type: cell-based; settings: time 5.0 day
T2 sequence (whole entry): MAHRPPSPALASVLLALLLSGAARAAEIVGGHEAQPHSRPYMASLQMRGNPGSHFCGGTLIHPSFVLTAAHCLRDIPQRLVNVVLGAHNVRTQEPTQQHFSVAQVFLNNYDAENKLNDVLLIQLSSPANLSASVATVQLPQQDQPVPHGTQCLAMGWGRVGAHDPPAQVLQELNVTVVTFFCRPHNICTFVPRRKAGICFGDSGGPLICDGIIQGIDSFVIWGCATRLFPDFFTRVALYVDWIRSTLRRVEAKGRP

RAW264.7 [12] = assay: Anti-inflammatory activity in mouse RAW264.7 cells assessed as inhibition of LPS-induced IL-1beta production at 5 uM preincubated for 1 hr followed by LPS addition and measured after 24 hrs by ELISA relative to control; type: functional; parameters: scale not given: the % may be the effect or the level left; settings: time 25 hrs
Dipeptidyl peptidase 1 = Dipeptidyl peptidase 1 (Homo sapiens, UniProt P53634); assay: Inhibition of Cathepsin C in human U-937 cells using H-Gly-Arg-AMC as substrate at 10 uM incubated for 5 days by fluorescence based microplate reader analysis relative to control; type: cell-based; settings: time 5.0 day
[13] = target: T3, Cathepsin G (Homo sapiens) (UniProt P08311); assay: Inhibition of Cathepsin G in human U-937 cells using N-Suc-Ala-Ala-Pro-Phe-pNA as substrate at 10 uM incubated for 5 days by […] based microplate reader analysis relative to control; type: cell-based; settings: time 5.0 day
T3 sequence (whole entry): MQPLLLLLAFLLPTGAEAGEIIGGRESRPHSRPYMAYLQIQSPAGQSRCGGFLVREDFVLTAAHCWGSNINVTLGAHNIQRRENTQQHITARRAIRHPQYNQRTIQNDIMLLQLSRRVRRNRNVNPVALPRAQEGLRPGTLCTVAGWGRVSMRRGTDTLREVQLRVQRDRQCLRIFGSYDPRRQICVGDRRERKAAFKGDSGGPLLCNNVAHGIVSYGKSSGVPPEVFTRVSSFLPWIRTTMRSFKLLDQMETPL

[14] = target: T4, Neutrophil elastase (Mus musculus) (UniProt Q3UP87); assay: Induction of neutrophil elastase degradation in C57BL/6 mouse bone marrow cells at 10 uM incubated for 24 hrs by Western blot analysis; type: cell-based; settings: Bone marrow cell
T4 sequence (whole entry): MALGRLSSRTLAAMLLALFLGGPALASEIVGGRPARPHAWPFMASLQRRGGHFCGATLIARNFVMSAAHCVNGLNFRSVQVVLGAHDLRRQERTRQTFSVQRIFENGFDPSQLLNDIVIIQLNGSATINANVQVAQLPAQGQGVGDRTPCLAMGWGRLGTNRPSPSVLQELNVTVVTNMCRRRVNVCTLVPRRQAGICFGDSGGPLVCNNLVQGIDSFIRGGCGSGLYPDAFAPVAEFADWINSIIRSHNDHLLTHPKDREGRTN

[15] = Half life in male Sprague-Dawley rat at 2 mg/kg, iv measured at 5 to 1440 mins by LC-MS/MS analysis; type: ADME, organism-based; settings: in vivo, time 5-1440 min
[16] = target: T1, Cathepsin G (Mus musculus); assay: Induction of Cathepsin G degradation in C57BL/6 mouse bone marrow cells assessed as residual activity at 10 uM incubated for 48 hrs by Western blot analysis relative to control; type: cell-based; settings: Bone marrow cell
Mus musculus [17] = assay: Anti-inflammatory activity in DSS-induced ulcerative colitis C57BL/6 mouse model assessed as effect on inflammatory factors at 60 mg/kg, administered twice daily; type: functional, organism-based
[18] = MRT in male Sprague-Dawley rat at 10 mg/kg, po measured at 5 to 1440 mins by LC-MS/MS analysis; type: ADME, organism-based; settings: in vivo, time 5-1440 min
[19] = Oral bioavailability in male Sprague-Dawley rat at 10 mg/kg measured at 5 to 1440 mins by LC-MS/MS analysis; type: ADME, organism-based; settings: in vivo, time 5-1440 min
Mus musculus [20] = assay: Anti-inflammatory activity in DSS-induced ulcerative colitis male C57BL/6 mouse model assessed as reduction in TNF-alpha expression in serum administered via gavage for 10 days by ELISA; type: functional, organism-based; settings: dose 15-60 mg/kg, time 10.0 day

Chain of Dipeptidyl peptidase 1 (P53634 25-134 limits assumed): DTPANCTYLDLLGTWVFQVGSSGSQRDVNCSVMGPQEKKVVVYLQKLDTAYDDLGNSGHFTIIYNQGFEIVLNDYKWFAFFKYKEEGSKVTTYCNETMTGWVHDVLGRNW
Chain of Dipeptidyl peptidase 1 (P53634 231-394 limits assumed): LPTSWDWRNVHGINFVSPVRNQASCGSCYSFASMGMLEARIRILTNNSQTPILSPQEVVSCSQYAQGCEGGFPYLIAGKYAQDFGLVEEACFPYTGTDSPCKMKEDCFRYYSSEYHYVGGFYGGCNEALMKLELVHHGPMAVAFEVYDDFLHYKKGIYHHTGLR
Chain of Dipeptidyl peptidase 1 (P53634 395-463 limits assumed): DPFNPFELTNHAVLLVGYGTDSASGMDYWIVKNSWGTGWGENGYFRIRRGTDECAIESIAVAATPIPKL

Question: Which results are given for O=C1Nc2c(cccc2-c2ccc(NC3CCOCC3)cc2)/C1=C/c1ccnc2ccccc12?
Answer: Activity (RAW264.7 [1]): 83.6%; Activity (Mus musculus [2]; time 10 day): 54%; Activity (Mus musculus [2]; time 10.0 day): Active; Activity (Mus musculus [3]): 52%; Activity (Mus musculus [4]): 45%; Activity (Mus musculus [5]): Dose-dependent-effect; Significant Increase Observed In High Dose Group; Activity (Mus musculus [6]): Active; Significantly More Effective Than In Mesalazine Treatment Group; Activity (Mus musculus [7]): inactive; Activity (Mus musculus [8]): Active; inhibition [9]: 39.5%; Activity (Mus musculus [10]): Active; inhibition [11]: 33.1%; Activity (RAW264.7 [12]): 90.5%; inhibition (Dipeptidyl peptidase 1): 14.9%; inhibition [13]: 17.2%; Activity [14]: Active; t1/2 [15]: 2.26 h; Activity [16]: 17.3%; Activity (Mus musculus [17]): Active; MRT [18]: 2.98 h; F [19]: 29.05%; Activity (Mus musculus [20]): Dose-dependent-effect; Significant Reduction Observed In High Dose Group
